Positions of bridges follow the written chain, without caps; N, C: chain ends. Chains are numbered I, II in the order given.
Tests used:
[1] = molecular target: T1, recombinant rat CLEC10A (Rattus norvegicus, UniProt P49301); test: Inhibition of binding of multivalent GalNAc-PAA
T1 construct: The extracellular domains of receptors, which were fused with the Fc domain of immunoglobulin IgG; purchased R&D Systems
T1 sequence (P49301 59-306 limits assumed): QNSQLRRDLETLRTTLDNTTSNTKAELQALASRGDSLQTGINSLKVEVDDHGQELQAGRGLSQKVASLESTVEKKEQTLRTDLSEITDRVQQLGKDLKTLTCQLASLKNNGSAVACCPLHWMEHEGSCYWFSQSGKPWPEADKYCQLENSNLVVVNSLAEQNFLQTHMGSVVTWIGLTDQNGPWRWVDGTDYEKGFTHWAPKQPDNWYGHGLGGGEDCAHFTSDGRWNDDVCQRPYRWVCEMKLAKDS
Method: FIGS. 3A-3D. sv6D as a mimetic of GalNAc. (FIG. 3A) Inhibition by sv6D of binding of multivalent GalNAc-PAA (GlycoTech Corp., Frederick, Md.) to recombinant rat CLEC10A and human ASGPR-1. The reaction mixture included approximately 200 pmoles of biotinylated GalNc-PAA and increasing concentrations of peptide. The figure includes average values from 3 independent experiments. (FIG. 3B) Biotinylated sv6D or GalNAc-PAA were incubated with rabbit antiserum raised against the 6D sequence (NQHTPR) (SEQ ID NO:1) conjugated to keyhole limpet hemocyanin (KLH). Binding was detected with streptavidin-peroxidase conjugate. Similar data were obtained in 2 experiments. (FIG. 3C) Inhibition by EGTA of binding of sv6D (pattern) or svL4 (solid) to CLEC10A and ASGPR-1, respectively. EGTA (1 mM) was added to the final concentrations indicated to assays. Retention of bound CLEC10A was determined by incubation with biotinylated anti-CLEC10A (goat IgG, R&D Systems) and detection with streptavidin-peroxidase conjugate (light grey circle). Similar data were obtained in 3 experiments. (FIG. 3D) Binding of svL4 and sv6D to human recombinant CLEC10A and ASGPR-1 as a function of concentration of peptide in the assay. The figure is representative of 4 separate assays.
To further determine whether sv6D interacts with the actual sugar binding site, the ability of sv6D to compete with GalNAc-PAA for binding was assayed.

[2] = system: ID8 ovarian cancer cell line; test: Murine model of ovarian cancer, sv6D and paclitaxel
Method: Combination study of sv6D and paclitaxel. (FIG. 8A) Female C57BL/6 mice were implanted with ID8 ovarian cancer cell line. […] Body weights of mice are shown as measured on day 58, after two weeks of alternate-day subcutaneous treatment with sv6D (0.1 nmol/g) or 3 intraperitoneal doses (days 45, 47 and 49) of 18 μg/g paclitaxel in cremophor. […] (FIG. 8B) Alternate-day injections of sv6D were initiated on day 50 with peptide alone or on day 100 to mice that were previously treated with paclitaxel between day 45 and 49. […] (FIG. 8C) Kaplan-Meier survival curves for mice treated with paclitaxel, sv6D or a combination of the two in which alternate-day subcutaneous injections of sv6D was started 50 days after paclitaxel treatment.
Cells of an ovarian epithelial cancer line, ID8 [110], were implanted into the peritoneal cavity of female C57BL/6 mice at a dose of 6×10^6 cells. All animals were weighed at least weekly throughout these studies. Accumulation of ascites was monitored by increase in body weight, and animals were euthanized when end-stage behavior was expressed. […] Kaplan-Meier survival curves were analyzed by the Mantel-Cox log-rank test.
A murine ovarian cancer cell line (ID8) was implanted into the peritoneal cavity of C57BL/6 female mice on day 0. […] Progression of the cancer was monitored by body weight of animals as an indication of ascites accumulation.

[3] = system: 4T1 breast cancer-bearing mice; conditions: 0.1 nmol/g svL4 s.c., 4 h
Method: When tumors reached a volume of at least 500 mm^3, animals were randomized into groups of 3 and dosed with either 0.1 or 1.0 nmol/g of svL4. At 4 h post dose, terminal blood was collected from 3 animals per group and prepared for serum. Sera were also collected from healthy Balb/c mice by the same procedure. Changes in the levels of cytokines/chemokines in sera from breast cancer-bearing and healthy mice were analyzed with the mouse L-308 membrane array by RayBiotech, Inc. (Norcross, Ga.) (Table 2).
Markers of lymphocyte and monocyte activation in response to 0.1 nmol/g svL4 in Balb/c mice bearing breast tumors are compared with healthy mice. Sera from three animals were pooled for analysis with an array of 308 soluble factors.
After the tumors had grown over a period of 10 to 12 days to a size of −500 mm^3, svL4 was injected subcutaneously at doses of 0.1 or 1.0 nmol/g. Sera were prepared 4 h after injection and analyzed with an array of 308 cytokines/chemokines.

[4] = High = control value negligible or low

“I: H-NQHTPRGGGSKK-NH2 / II: H-NQHTPRGGGSK / III: H-NQHTPRGGGS / IV: H-NQHTPRGGGS (amide I:11-IV:C, I:12-II:C, II:11-III:C) [sv6D]” was tested, and the “Inhibition of binding of GalNAc-PAA to CLEC10A” value ([1]; about 200 pmoles biotinylated GalNAc-PAA, increasing peptide) was “inhibited”, the “Avidity relative to multivalent GalNAc-PAA” value ([1]; from competition experiment) was “over an order of magnitude greater” and the Median survival ([2]; paclitaxel days 45-49 followed by sv6D from day 100) was 169 days. For the same substance, the Overall survival time ([2]; paclitaxel followed by sv6D) was “doubled”, the Median survival ([2]; single agent, sv6D 0.1 nmol/g, control median end-stage day 122) was “approximately 141 days” and the “Weight gain at day 120” value ([2]; sv6D alone initiated at day 45) was “no significant weight gain for half the animals”. For the same substance, the “Further increase in body weight over 3 weeks” value ([2]; sv6D alternate days from day 100, 50 days after paclitaxel) was “completely suppressed further increases in weight” and the “Body weight (ascites accumulation) after two weeks of treatment” value ([2]; treatment from day 45, sv6D 0.1 nmol/g s.c. alternate days, paclitaxel 18 μg/g i.p. x3) was “had not significantly increased”.
With “I: H-VQATQSNQHTPRGGGSKK-NH2 / II: H-VQATQSNQHTPRGGGSK / III: H-VQATQSNQHTPRGGGS / IV: H-VQATQSNQHTPRGGGS (amide I:17-IV:C, I:18-II:C, II:17-III:C) [svL4]” the “Ratio of level of IFN-γ in sera (treated vs. untreated)” value [3, 4] was “High”, the “Ratio of level of IL-17 in sera (treated vs. untreated)” value [3, 4] was “High” and the “Ratio of level of IL-21 in sera (treated vs. untreated)” value [3, 4] was “High”. For the same substance, the “Ratio of level of IL-23 in sera (treated vs. untreated)” value [3, 4] was “High”, the “Ratio of level of IL-1α in sera (treated vs. untreated)” value ([3]; pooled sera of 3) was 3 and the “Ratio of level of IL-2 in sera (treated vs. untreated)” value ([3]; pooled sera of 3) was 56. The “Ratio of level of IL-12p70 in sera (treated vs. untreated)” value ([3]; pooled sera of 3) was 3, the “Ratio of level of IL-27 in sera (treated vs. untreated)” value ([3]; pooled sera of 3) was 4.5 and the “Ratio of level of IL-28 in sera (treated vs. untreated)” value ([3]; pooled sera of 3) was 4.3. The “Ratio of level of IL-31 in sera (treated vs. untreated)” value ([3]; pooled sera of 3) was 3.5, the “Ratio of level of Lymphotoxin-α in sera (treated vs. untreated)” value ([3]; pooled sera of 3) was 12.5 and the “Ratio of level of TNFα in sera (treated vs. untreated)” value ([3]; pooled sera of 3) was 45. The “Ratio of level of sHVEM in sera (treated vs. untreated)” value ([3]; pooled sera of 3) was 2.
